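The compound was tested at five concentrations on cells cultured in 96-well plates, with a 48-hour exposure period. The concentration for full growth arrest is given as TGI.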
Legend:
Experiment in all cases: growth of human tumour cells (NCI), 48 h
SK-MEL-28 melanoma = system: SK-MEL-28 melanoma
CCRF-CEM leukemia = system: CCRF-CEM leukemia
ACHN renal = system: ACHN renal
DMS 273 small cell lung = system: DMS 273 small cell lung
SF-268 CNS = system: SF-268 CNS
SF-295 CNS = system: SF-295 CNS
SNB-75 CNS = system: SNB-75 CNS
NCI-H23 lung = system: NCI-H23 lung
UO-31 renal = system: UO-31 renal
NCI-H522 lung = system: NCI-H522 lung
OVCAR-5 ovarian = system: OVCAR-5 ovarian
NCI-H460 lung = system: NCI-H460 lung
UACC-62 melanoma = system: UACC-62 melanoma
UACC-257 melanoma = system: UACC-257 melanoma
SN12C renal = system: SN12C renal
DLD-1 colon = system: DLD-1 colon
CAKI-1 renal = system: CAKI-1 renal
U251 CNS = system: U251 CNS
786-0 renal = system: 786-0 renal
SK-MEL-2 melanoma = system: SK-MEL-2 melanoma
OVCAR-4 ovarian = system: OVCAR-4 ovarian
HCT-15 colon = system: HCT-15 colon
MALME-3M melanoma = system: MALME-3M melanoma
KM20L2 colon = system: KM20L2 colon
SF-539 CNS = system: SF-539 CNS
M19-MEL melanoma = system: M19-MEL melanoma
TK-10 renal = system: TK-10 renal
SK-MEL-5 melanoma = system: SK-MEL-5 melanoma
SNB-78 CNS = system: SNB-78 CNS
SW-620 colon = system: SW-620 colon
HCC-2998 colon = system: HCC-2998 colon
OVCAR-8 ovarian = system: OVCAR-8 ovarian
EKVX NSCLC = system: EKVX NSCLC
M14 melanoma = system: M14 melanoma
HOP-92 NSCLC = system: HOP-92 NSCLC
LXFL 529 NSCLC = system: LXFL 529 NSCLC
A498 renal = system: A498 renal
RXF-631 renal = system: RXF-631 renal
SK-OV-3 ovarian = system: SK-OV-3 ovarian
IGROV1 ovarian = system: IGROV1 ovarian
HL-60(TB) leukemia = system: HL-60(TB) leukemia
NCI-H226 lung = system: NCI-H226 lung
MOLT-4 leukemia = system: MOLT-4 leukemia
HCT-116 colon = system: HCT-116 colon
DMS 114 small cell lung = system: DMS 114 small cell lung
A549 NSCLC = system: A549 NSCLC
KM12 colon = system: KM12 colon
HOP-62 NSCLC = system: HOP-62 NSCLC
SNB-19 CNS = system: SNB-19 CNS
K-562 leukemia = system: K-562 leukemia
COLO 205 colon = system: COLO 205 colon
HOP-18 NSCLC = system: HOP-18 NSCLC
RPMI-8226 leukemia = system: RPMI-8226 leukemia
HT29 colon = system: HT29 colon
OVCAR-3 ovarian = system: OVCAR-3 ovarian
XF 498 CNS = system: XF 498 CNS
RXF 393 renal = system: RXF 393 renal
LOX IMVI melanoma = system: LOX IMVI melanoma

In the case of `O=C(Nc1ccc(Cl)cc1Cl)C1C(=O)N(c2ccc(Cl)cc2Cl)C(=O)/C1=N\Nc1ccc([N+](=O)[O-])cc1[N+](=O)[O-]` (centres undefined), the TGI (SK-MEL-28 melanoma) is reported as greater than 100 µM, the TGI (CCRF-CEM leukemia) is reported as greater than 100 µM and the TGI (ACHN renal) is reported as greater than 100 µM. It also gave a TGI (DMS 273 small cell lung) greater than 100 µM, a TGI (SF-268 CNS) greater than 100 µM and a TGI (SF-295 CNS) greater than 100 µM. The TGI (SNB-75 CNS) was 97.7 µM, the TGI (NCI-H23 lung) was 87.6 µM and the TGI (UO-31 renal) was greater than 100 µM. For the same compound, the TGI (NCI-H522 lung) was 71 µM, the TGI (OVCAR-5 ovarian) was greater than 100 µM and the TGI (NCI-H460 lung) was greater than 100 µM. The TGI (UACC-62 melanoma) was greater than 100 µM, the TGI (UACC-257 melanoma) was 98.7 µM and the TGI (SN12C renal) was greater than 100 µM. The TGI (DLD-1 colon) was greater than 100 µM, the TGI (CAKI-1 renal) was greater than 100 µM and the TGI (U251 CNS) was greater than 100 µM. For the same compound, the TGI (786-0 renal) was greater than 100 µM, the TGI (SK-MEL-2 melanoma) was greater than 100 µM and the TGI (OVCAR-4 ovarian) was greater than 100 µM. For the same compound, the TGI (HCT-15 colon) was greater than 100 µM, the TGI (MALME-3M melanoma) was greater than 100 µM and the TGI (KM20L2 colon) was greater than 100 µM. For the same compound, the TGI (SF-539 CNS) was greater than 100 µM, the TGI (M19-MEL melanoma) was greater than 100 µM and the TGI (TK-10 renal) was greater than 100 µM. For the same compound, the TGI (SK-MEL-5 melanoma) was greater than 100 µM, the TGI (SNB-78 CNS) was greater than 100 µM and the TGI (SW-620 colon) was greater than 100 µM. For the same compound, the TGI (HCC-2998 colon) was greater than 100 µM, the TGI (OVCAR-8 ovarian) was greater than 100 µM and the TGI (EKVX NSCLC) was greater than 100 µM. The TGI (M14 melanoma) was greater than 100 µM, the TGI (HOP-92 NSCLC) was 62.3 µM and the TGI (LXFL 529 NSCLC) was greater than 100 µM. The TGI (A498 renal) was greater than 100 µM, the TGI (RXF-631 renal) was greater than 100 µM and the TGI (SK-OV-3 ovarian) was greater than 100 µM. For the same compound, the TGI (IGROV1 ovarian) was greater than 100 µM, the TGI (HL-60(TB) leukemia) was greater than 100 µM and the TGI (NCI-H226 lung) was greater than 100 µM. It also gave a TGI (MOLT-4 leukemia) of 74.8 µM, a TGI (HCT-116 colon) greater than 100 µM and a TGI (DMS 114 small cell lung) of 66.8 µM. It also gave a TGI (A549 NSCLC) greater than 100 µM, a TGI (KM12 colon) greater than 100 µM and a TGI (HOP-62 NSCLC) greater than 100 µM. It also gave a TGI (SNB-19 CNS) greater than 100 µM, a TGI (K-562 leukemia) greater than 100 µM and a TGI (COLO 205 colon) greater than 100 µM. The TGI (HOP-18 NSCLC) was greater than 100 µM, the TGI (RPMI-8226 leukemia) was 69.5 µM and the TGI (HT29 colon) was greater than 100 µM. For the same compound, the TGI (OVCAR-3 ovarian) was greater than 100 µM.

With `Cc1ccc(S(=O)(=O)N[C@H](C(=O)O)c2ccccc2)cc1` the TGI (SK-MEL-28 melanoma) was greater than 100 µM, the TGI (XF 498 CNS) was greater than 100 µM and the TGI (CCRF-CEM leukemia) was greater than 100 µM. For the same compound, the TGI (ACHN renal) was greater than 100 µM, the TGI (DMS 273 small cell lung) was greater than 100 µM and the TGI (SF-268 CNS) was greater than 100 µM. It also gave a TGI (SF-295 CNS) greater than 100 µM, a TGI (SNB-75 CNS) greater than 100 µM and a TGI (NCI-H23 lung) greater than 100 µM. For the same compound, the TGI (UO-31 renal) was greater than 100 µM, the TGI (NCI-H522 lung) was greater than 100 µM and the TGI (OVCAR-5 ovarian) was greater than 100 µM. It also gave a TGI (NCI-H460 lung) greater than 100 µM, a TGI (UACC-62 melanoma) greater than 100 µM and a TGI (UACC-257 melanoma) greater than 100 µM. For the same compound, the TGI (SN12C renal) was greater than 100 µM, the TGI (DLD-1 colon) was greater than 100 µM and the TGI (CAKI-1 renal) was greater than 100 µM. For the same compound, the TGI (U251 CNS) was greater than 100 µM, the TGI (786-0 renal) was greater than 100 µM and the TGI (SK-MEL-2 melanoma) was greater than 100 µM. For the same compound, the TGI (OVCAR-4 ovarian) was greater than 100 µM, the TGI (RXF 393 renal) was greater than 100 µM and the TGI (HCT-15 colon) was greater than 100 µM. The TGI (MALME-3M melanoma) was greater than 100 µM, the TGI (KM20L2 colon) was greater than 100 µM and the TGI (SF-539 CNS) was greater than 100 µM. It also gave a TGI (M19-MEL melanoma) greater than 100 µM, a TGI (TK-10 renal) greater than 100 µM and a TGI (SK-MEL-5 melanoma) greater than 100 µM. For the same compound, the TGI (SW-620 colon) was greater than 100 µM, the TGI (HCC-2998 colon) was greater than 100 µM and the TGI (OVCAR-8 ovarian) was greater than 100 µM. It also gave a TGI (EKVX NSCLC) greater than 100 µM, a TGI (M14 melanoma) greater than 100 µM and a TGI (LOX IMVI melanoma) greater than 100 µM. It also gave a TGI (HOP-92 NSCLC) greater than 100 µM, a TGI (LXFL 529 NSCLC) greater than 100 µM and a TGI (A498 renal) greater than 100 µM. For the same compound, the TGI (RXF-631 renal) was greater than 100 µM, the TGI (SK-OV-3 ovarian) was greater than 100 µM and the TGI (IGROV1 ovarian) was greater than 100 µM. It also gave a TGI (HL-60(TB) leukemia) greater than 100 µM, a TGI (NCI-H226 lung) greater than 100 µM and a TGI (MOLT-4 leukemia) greater than 100 µM. For the same compound, the TGI (A549 NSCLC) was greater than 100 µM, the TGI (KM12 colon) was greater than 100 µM and the TGI (SNB-19 CNS) was greater than 100 µM. For the same compound, the TGI (K-562 leukemia) was greater than 100 µM, the TGI (COLO 205 colon) was greater than 100 µM and the TGI (HOP-18 NSCLC) was greater than 100 µM. The TGI (RPMI-8226 leukemia) was greater than 100 µM, the TGI (HT29 colon) was greater than 100 µM and the TGI (OVCAR-3 ovarian) was greater than 100 µM.
